For one series, the system named is OVCAR-3 cells. The series can be described thus: Cell cycle by EdU flow cytometry (dose, time, washout, tracing). Type of series: cell-based, human. The procedure:
Cells were plated at 100,000 cells/well in Corning 6 cm tissue culture treated plates. […] Cells were collected and fixed in 1% paraformaldehyde. Cells were incubated with Alexa488 azide dye as described by Thermo Scientific. Cells were then incubated with Fxcycle-violet and RNase. Cells were analyzed on a BD Celesta and data compiled using FloJo and GraphPad.
The OVCAR3 human ovarian carcinoma cell line was grown in RPMI-1640/1× Glutamax/1× Insulin/10% fetal bovine serum and was plated at 300,000 cells/well in Corning 6 cm tissue culture treated plates. […] Cells were treated for the indicated amount of time (24 hours or 48 hours), with 10 μM EdU added for the last hour of treatment. Cells were collected and fixed in 1% paraformaldehyde. Cells were incubated with Alexa 488 (A488) azide dye as described by Thermo Scientific. Cells were then incubated with FarRed dye and RNase. Cells were analyzed on a BD Celesta and data compiled using FloJo and GraphPad Prism (FIG. 13A-B).
The OVCAR3 human ovarian carcinoma cell line was grown in RPMI-1640/1× Glutamax/1× Insulin/10% fetal bovine serum and was plated at 300,000 cells/well in Corning 6 cm tissue culture treated plates. […] At 24 hours, the remaining plates were rinsed with media before un-treated media was added back. Cells were collected at the indicated times, with 10 μM EdU added for the last hour (FIG. 14A). Cells were collected and fixed in 1% paraformaldehyde. Cells were incubated with Pacific blue azide dye as described by Thermo Scientific. Cells were then incubated with FarRed dye and RNase. Cells were analyzed on a BD Celesta and data compiled using FloJo and GraphPad. […] By 18 hours, OVCAR-3 cells were in G2 or reentering G1. Cells appeared to remain somewhat synchronized over 48 hours.
The OVCAR3 human ovarian carcinoma cell line was grown in RPMI-1640/1× Glutamax/1× Insulin/10% fetal bovine serum and was plated at 300,000 cells/well in Corning 6 cm tissue culture treated plates. […] Cells were divided into two sets. The first set was treated for the indicated amount of time, with 10 μM EdU added for the last hour of treatment before being collected. The second set of cells were treated for the indicated amount of time and had EdU added for one hour before the timepoint. Then the media was aspirated, the cells washed, and re-treated with treatment media. The second set of cells was collected at 48 hours, allowing for tracing of the EdU positive cells. Cells were collected and fixed in 1% paraformaldehyde. Cells were incubated with Alexa 488 (A488) azide dye as described by Thermo Scientific. Cells were then incubated with FarRed dye and RNase. Cells were analyzed on a BD Celesta and data compiled using FloJo and GraphPad. […] Several “snap shots” of cells at various timepoints, followed by where the cells from S phase ended up at the end of 48 hours of treatment, were collected. […] It appears that the cells in S phase at after 6 hours of treatment are arresting in G1 (FIG. 15B). At 24 hours of treatment, little to no cells were in S phase so there were no cells to trace (FIG. 15C). Although the DMSO sample appears largely different at 48 hours, the distribution appears similar to the DMSO, EdU free cells at 48 hours. […] (FIG. 15D).

The next series concerns the target T1, human OAT3 (Homo sapiens, UniProt Q8TCC7).
T1 construct: expressed in transfected cells; host or cells: HEK293
T1 sequence (Q8TCC7 1-542): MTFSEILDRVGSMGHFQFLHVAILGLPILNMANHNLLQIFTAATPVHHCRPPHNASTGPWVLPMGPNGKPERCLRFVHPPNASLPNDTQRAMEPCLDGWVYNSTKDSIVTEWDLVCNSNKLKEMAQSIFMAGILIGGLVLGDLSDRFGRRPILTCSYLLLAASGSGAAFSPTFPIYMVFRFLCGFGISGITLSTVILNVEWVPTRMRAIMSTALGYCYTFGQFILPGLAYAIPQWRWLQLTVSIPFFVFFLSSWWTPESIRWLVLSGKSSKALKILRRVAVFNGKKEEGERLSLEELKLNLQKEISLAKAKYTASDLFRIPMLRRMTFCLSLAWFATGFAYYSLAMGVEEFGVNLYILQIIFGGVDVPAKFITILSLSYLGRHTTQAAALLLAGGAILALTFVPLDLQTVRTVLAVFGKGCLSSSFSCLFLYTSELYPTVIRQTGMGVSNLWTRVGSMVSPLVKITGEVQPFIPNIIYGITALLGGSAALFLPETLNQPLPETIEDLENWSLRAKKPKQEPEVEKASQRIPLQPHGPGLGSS
The series can be described thus: SLC transporter inhibition in HEK293 cells. Format: in vitro ADME.

Series [1] concerns pRb (S780) in therapy-resistant T47D/MCF7M cells. The series can be described thus: Western blot Rb phosphorylation in therapy-resistant cells. Format: cell-based, human. To be noted: combined with a CDK4/6i and/or estrogen therapy, 7 days. The procedure:
Retinoblastoma (Rb) phosphorylation status analysis was then conducted in therapy-resistant cells by Western blotting. The T47D human breast carcinoma cell line was grown in RPMI-1640/1× Glutamax/1× Insulin/10% fetal bovine serum and was plated in Corning 6 well tissue culture treated plates. Cells were incubated at 37° C. for 24 hours prior to addition of treatment. Treatments were either DMSO, Compound I, or abemaciclib alone, or Compound I in combination with abemaciclib. Cells were treated for 7 days. All Abemaciclib treated cells received 500 nM Abemaciclib. […] Supernatant was removed, pellet resuspended in 250 μL of 1× Cell Lysis buffer (CST #9803, 1 tablet of PhosSTOP, 1 tablet of complete Protease Inhibitor Cocktail in 5 mL) then incubated on ice for 20 mins. Lysate was centrifuged at 21,000×g for 20 min at 4° C. and supernatant transferred to clean tubes. A DC assay was performed to determine the protein concentration of each lysate. 20 μg of protein was mixed with Laemelli buffer (+5% BME) before being run on homemade 15% gels. For samples normalized to cell number (p-RB and total RB), cells were washed in ice-cold PBS. Cells were counted and 500,000 cells were aliquoted into clean tubes. Cells were centrifuged at 500×g for 4 mins at 4° C. and supernatant discarded. Cell pellets were directly lysed in 100 μL of Laemmli buffer (+5% BME) and boiled at 95° C. for 12 min. […]
A general note: A western blot detects proteins with antibodies after separation by electrophoresis.

Like-named read-outs stand apart in the source and are kept apart here.

Regarding `NS(=O)(=O)c1ccc(Nc2ncc3cc4n(c3n2)C2(CCCCC2)C(=O)NN4)cc1` [Compound I], the “cell cycle distribution with increasing concentrations” value in the series with OVCAR-3 cells (10 nM to 10 μM, 24 hours) was “exit the S-phase and increasingly occupy the G0-G1 phase”. In addition, the figures for the “G1 arrest over 48 h” value with OVCAR-3 cells (100 nM) and in the series on OVCAR-3 cells (300 nM) were “does not arrest all cells in G1” and “performs just as well”, respectively. For the same compound, in the series on OVCAR-3 cells (300 nM, 24 hours), the “cells arrested in G1” value is recorded as “Approximately 80%”. Further, the “cells proceeding to S phase compared with PF-07104091” value with OVCAR-3 cells (1, 6, 24 and 48 hours of treatment) is listed as “permits fewer cells to proceed to S phase”. In the series with OVCAR-3 cells (traced to 48 hours), the “fate of cells in S phase at treatment initiation (EdU tracing)” value was “become arrested in G1”. Besides, the “Maximum Percent inhibition” value at human OAT3 (OAT3, HEK293 cells) is 86%. The concentration for half-maximal inhibition (IC50) on human OAT3 (OAT3, HEK293 cells, read-out: IC50) stood at 4.01 µM; on human OAT3 (read-out: OAT3 IC50) it was 4.01 µM. In series [1], the “Rb phosphorylation in therapy-resistant cells” value was “prevents the phosphorylation”.

As a reminder, the IC50 is the concentration at which inhibition is half-maximal.

(Values after US20250199015A1, “CYCLIN-DEPENDENT KINASE 2 INHIBITORS FOR MEDICAL TREATMENT” (INCYCLIX BIO, LLC, priority 2022, published 2025).)
